Columns and labels:
[1] = Amount of salicylic acid in rat brain tissue (blood-brain barrier), 0.5 mmol/kg; format: in vivo, rats
Procedure: 30, 60, 120, 240, 480 minutes after the test compound was administrated, rats were decapitated and were perfused with normal Krebs-Henseleit buffer (with Heparin Sodium, pH7.4) (10 mL/min) to remove blood. […] The mixture was centrifuged for 5 minutes at 16,000 rpm. The supernatant (2 ml) was collected and evaporated to dryness.

[2] = tested on: autologous blood clots injected in femoral vein (pulmonary thrombus); experiment: Anti-thrombosis activity, autologous blood clots in rabbits; format: in vivo, Chinese White rabbits; conditions: 50 mg/kg topically to the back twice per day, 5 days
Procedure: Eighteen Chinese White rabbits weighing between 3.0 and 3.5 kg (aged 6-7 months) were selected and divided into three groups (control, P-1 and […] groups, n=6). One hour before the experiment, thrombi were made by aspirating venous blood (1 ml) into a sterilized bottle to clot. To avoid fragmentation and slow lysis, the autologous blood clots were stabilized in temperature-controlled (70° C.) distilled water for 10 min. After anesthesia, the femoral veins were exposed and distally isolated, and autologous blood clots (0.05 g/kg) were injected through an indwelling catheter (20GA), which had been placed in the femoral vein isolated earlier. 50 mg/kg of diethylaminoethyl acetylsalicylate.HCl salt (P-1, 10% in 25% ethanol) and diethylaminoethyl acetylsalicylsalicylate.HCl salt (P-59, 10% in 25% ethanol) were topically applied to the back of the rabbits twice per day. After 5 days, rabbits were euthanized with an excessive intravenous injection of sodium amobarbital (60 mg/kg). The lungs and hearts were isolated to observe whether thrombi were present in the pulmonary arteries. The lungs were immersed in 10% formalin for 24 h. Consecutive transverse sections along the obstructed pulmonary arteries were paraffin-embedded and stained with hematoxylin-eosine. […]

[3] = tested on: fungal diseases and insects of grape vine; experiment: Antiviral, anti-fungus, anti-insect activity in red grape vine; format: in vivo
Source text: 2 Acres of grape vine was divided into 4 groups (½ acre each). All field operations concerning land preparation and the uses of fertilizers were same for all groups. Group A was control group treated with no chemicals. Group B was normal fungicides and insecticides-treated group. Group C was N,N-diethylaminoethyl acetylsalicylate treated group. Group D was N,N-diethylaminoethyl acetylsalicylate and N,N-diethylaminoethyl jasmonate.citric acid treated group. In group A, black rot, downy mildew, powdery mildew, anthracnose, Phomopsis Blight, and other fungal diseases were found and Grape Berry Moth, Grape Root Borer, Rose Chafer, Japanese beetle, grape tomato gall, and other diseases and insects were found. Yield nothing of good (edible) grapes. In group B, 200 g of Ferbam 76% WP in 100 kg of water was applied to the group B grape vines in November 15; 160 g of sulfur 95% WP and 600 g of hydrated lime in 100 kg of water was applied to the group B grape vines in December 15; 200 g of Daconil 2787 in 100 kg of water was applied to the group B grape vines in March 10; 250 g of Captan 50% WP and 200 g of dimethomorph 50% WP in 100 kg of water was applied to the group B grape vines in March 20; 30 g of (4″R)-4″-deoxy-4″-(methylamino)avermectin B1 benzoate [proclaim ? (banleptm)] […]

Question: With `CCN(CC)CCOC(=O)c1ccccc1OC(C)=O.Cl` [P-1, diethylaminoethyl acetylsalicylate.HCl salt] as the compound, how does the “salicylic acid in brain tissue” value ([1]; intramuscularly, 30 min) read?
Answer: 6.5 ± 2.2 nmol/g

Question: And the “salicylic acid in brain tissue” value ([1]; intramuscularly, 60 min)?
Answer: 8.2 ± 2.3 nmol/g

Question: What about the “salicylic acid in brain tissue” value ([1]; intramuscularly, 120 min) of the same compound?
Answer: 9.4 ± 3.1 nmol/g

Question: What about the “salicylic acid in brain tissue” value ([1]; intramuscularly, 240 min) of the same compound?
Answer: 8.5 ± 2.5 nmol/g

Question: What about the “salicylic acid in brain tissue” value ([1]; intramuscularly, 480 min) of the same compound?
Answer: 8.2 ± 2.3 nmol/g

Question: And the “salicylic acid in brain tissue” value ([1]; transdermally, 30 min)?
Answer: 3.1 ± 1.1 nmol/g

Question: And the “salicylic acid in brain tissue” value ([1]; transdermally, 60 min)?
Answer: 6.3 ± 2.3 nmol/g

Question: What about the “salicylic acid in brain tissue” value ([1]; transdermally, 120 min) of the same compound?
Answer: 8.2 ± 3.5 nmol/g

Question: What about the “salicylic acid in brain tissue” value ([1]; transdermally, 240 min) of the same compound?
Answer: 9.3 ± 3.3 nmol/g

Question: What about the “salicylic acid in brain tissue” value ([1]; transdermally, 480 min) of the same compound?
Answer: 9.5 ± 4.2 nmol/g

Question: And the “lung tissue and vascular walls (histology)” value [2]?
Answer: both lung tissue and vascular walls were normal

Question: And the “Yield of good (edible) grapes” value ([3]; 1/2 acre per group, Malathion co-applied in group C)?
Answer: 6300 kg

Question: And the harvest dates earlier ([3]; groups C and D)?
Answer: 10 days
